According to US20250122465A1 (priority 2023, published 2025):
Read-outs that look alike come from different tables or passages of the source.

How the values were obtained:
STRAIN-1 = assay: Spore activation rate by phase-contrast microscopy, STRAIN-1; assay type: cell-based, Bacillus
[1] = test system: Clostridium perfringens type A and G strains; conditions: combined with taurocholate; cited from earlier work
[2] = Example 1, individual amino acid at its Table 1 amount (0.08-500 g/L), 42° C., 1 hour
[3] = Example 1, individual amino acid at its Table 1 amount (0.08-500 g/L), 42° C., 24 hours

OC[C@H]1O[C@@H](n2cnc3c(O)ncnc32)[C@H](O)[C@@H]1O [Inosine]
Activation Rate (%) at 1 hr. (STRAIN-1; [2]): 0%
Activation Rate (%) at 24 hrs. (STRAIN-1; [3]): 0%

NC(=O)CC[C@H](N)C(=O)O [L-Glutamine]
Activation Rate (%) at 1 hr. (STRAIN-1; [2]): 0%
Activation Rate (%) at 24 hrs. (STRAIN-1; [3]): 0%

CSCC[C@H](N)C(=O)O [L-Methionine]
Activation Rate (%) at 1 hr. (STRAIN-1; [2]): 0%
Activation Rate (%) at 24 hrs. (STRAIN-1; [3]): 0%

CC(C)C[C@H](N)C(=O)O [L-Leucine]
Activation Rate (%) at 24 hrs. (STRAIN-1): zero
Activation Rate (%) at 1 hr. (STRAIN-1; [2]): 0%
Activation Rate (%) at 24 hrs. (STRAIN-1; [3]): 0%

CC(C)[C@H](N)C(=O)O [L-Valine]
Activation Rate (%) at 1 hr. (STRAIN-1): did not result in any activation
Activation Rate (%) at 1 hr. (STRAIN-1; [2]): 0%
Activation Rate (%) at 24 hrs. (STRAIN-1; [3]): 95 +/− 0%
Activation Rate (%) at 24 hrs. (STRAIN-1; Example 1, individual amino acid at its Table 1 amount (0.08-500 g/L), 42° C., 24 hours, listed as L-valine): 95%

N=C(N)NCCC[C@H](N)C(=O)O [L-Arginine]
Activation Rate (%) at 1 hr. (STRAIN-1; [2]): 0%
Activation Rate (%) at 24 hrs. (STRAIN-1; [3]): 0%

N[C@@H](Cc1c[nH]cn1)C(=O)O [L-Histidine]
Activation Rate (%) at 1 hr. (STRAIN-1; [2]): 0%
Activation Rate (%) at 24 hrs. (STRAIN-1; [3]): 0%

N[C@@H](Cc1ccccc1)C(=O)O [L-Phenylalanine]
Activation Rate (%) at 1 hr. (STRAIN-1; [2]): 0%
Activation Rate (%) at 24 hrs. (STRAIN-1; [3]): 0%

NCC(=O)O [Glycine]
Activation Rate (%) at 1 hr. (STRAIN-1; [2]): 0%
Activation Rate (%) at 24 hrs. (STRAIN-1; [3]): 0%

N[C@@H](Cc1c[nH]c2ccccc12)C(=O)O [L-Tryptophan]
Activation Rate (%) at 1 hr. (STRAIN-1; [2]): 0%
Activation Rate (%) at 24 hrs. (STRAIN-1; [3]): 0%

N[C@@H](CO)C(=O)O [L-Serine]
Activation Rate (%) at 1 hr. (STRAIN-1; [2]): 0%
Activation Rate (%) at 24 hrs. (STRAIN-1; [3]): 0%

N[C@@H](CCC(=O)O)C(=O)O [L-Glutamic acid]
Activation Rate (%) at 1 hr. (STRAIN-1; [2]): 0%
Activation Rate (%) at 24 hrs. (STRAIN-1; [3]): 0%

N[C@@H](CSSC[C@H](N)C(=O)O)C(=O)O [L-Cystine]
Activation Rate (%) at 1 hr. (STRAIN-1; [2]): 0%
Activation Rate (%) at 24 hrs. (STRAIN-1; [3]): 0%

CC[C@H](C)[C@H](N)C(=O)O [L-Isoleucine]
Activation Rate (%) at 24 hrs. (STRAIN-1; [3]): 99 +/− 0%
Activation Rate (%) at 24 hrs. (STRAIN-1; Example 1, individual amino acid at its Table 1 amount (0.08-500 g/L), 42° C., 24 hours, listed as L-isoleucine): 99%

C[N+](C)(C)C[C@H](O)CC(=O)[O-] [L Carnitine]
Activation Rate (%) at 1 hr. (STRAIN-1): 0%
Activation Rate (%) at 24 hrs. (STRAIN-1): 0%

N[C@@H](Cc1ccc(O)cc1)C(=O)O [L-Tyrosine]
Activation Rate (%) at 1 hr. (STRAIN-1; [2]): 0%
Activation Rate (%) at 24 hrs. (STRAIN-1; [3]): 0%

C[C@H](N)C(=O)O [L-alanine]
spore germination induced [1]: approximately 50%

N[C@@H](CS)C(=O)O [L-Cysteine]
Activation Rate (%) at 1 hr. (STRAIN-1; [2]): 0%
Activation Rate (%) at 24 hrs. (STRAIN-1; [3]): 0%

C[C@@H](O)[C@H](N)C(=O)O [L-Threonine]
Activation Rate (%) at 1 hr. (STRAIN-1; [2]): 0%
Activation Rate (%) at 24 hrs. (STRAIN-1; [3]): 0%

N[C@@H](CC(=O)O)C(=O)O [L-Aspartic acid]
Activation Rate (%) at 1 hr. (STRAIN-1; [2]): 0%
Activation Rate (%) at 24 hrs. (STRAIN-1; [3]): 0%

NCCCC[C@H](N)C(=O)O [L-Lysine]
Activation Rate (%) at 1 hr. (STRAIN-1): 0%
Activation Rate (%) at 24 hrs. (STRAIN-1): 0%

O=C(O)[C@@H]1CCCN1 [L-Proline]
Activation Rate (%) at 1 hr. (STRAIN-1; [2]): 0%
Activation Rate (%) at 24 hrs. (STRAIN-1; [3]): 0%
